US12590108B2, “Boracic acid compound” (Phaeno Therapeutics Co., Ltd, priority 2020, dated 2026)

Key:
Experiment in all cases: MIC shift, liquid microdilution, test compound fixed at 8 μg/mL
Type in all cases: cell-based
[1] = test system: Klebsiella pneumoniae ATCC BAA-1705 (KPC-2); details: ATCCBAA1705, meropenem alone, K. pneumoniae ATCC BAA-1705
Protocol: (§1) Preparation of compound mother plate: On the day of the experiment, the compound to be tested (the final concentration was 0.3125 to 20 μg/mL) and meropenem (the final concentration ranged from 1 to 64 μg/mL) were dissolved in a corresponding solvent (sterile ddH2O or DMSO) to form 100× mother liquors with the highest test concentration, and the compound to be tested and meropenem were then subjected to 2-fold series gradient dilution in a V-bottom 96-well plate to obtain 100× working solutions with the final concentration.
(§2) Preparation of inoculation solution: Fresh bacterial clones were picked from an overnight Mueller Hinton II Agar medium (MHA, Cat. No. 211438, BD BBLTM) plate, suspended in sterilized physiological saline, and adjusted to a concentration of 1×10^8 CFU/mL, and the suspension was further diluted to 5-10^5 CFU/mL with Cation-Adjusted Mueller Hinton II Broth (MHB, Catalog #212332, BD BBLTM).
(§3) Detection of minimum inhibitory concentration (MIC): 1 μL of the compound to be tested and the meropenem working solution were transferred to the corresponding wells to be tested in a round-bottomed 96-well plate (Catalog #3788, Corning), and 98 μL of the inoculation solution was added to the round-bottomed 96-well plate containing drugs, which was an MIC test plate; and after the plate was inverted and cultured at 37° C. for 20-24 h, the MIC value was read, and the minimum inhibitory concentration for inhibiting bacterial growth was defined as MIC.
(§4) The test compound was tested for minimum inhibitory concentration against 5 strains of Klebsiella pneumoniae ATCC BAA-1705 (KPC-2), ATCC BAA-2470 (NDM-1), ARLG-1196 (CTM-1 group, SHA NDM, TEM), NCTC 13440 (VIM-1), and NCTC 13439 (VIM), and one strain of Escherichia coli ARLG-2829 (NDM-5, OXA-1). According to the requirements of the Institute of Clinical And Laboratory Standard (CLSI), the minimum inhibitory concentration (MIC) of each drug combination was determined by liquid microdilution method under the premise of fixing the concentration of the compound to be tested at 8 μg/mL. The test method was the same as above, and the concentration of meropenem ranged from 0.125 to 8 μg/mL.

[2] = test system: Klebsiella pneumoniae NCTC 13440 (VIM-1); details: NCTC13440, meropenem alone, K. pneumoniae NCTC 13440
Protocol: as §1, §2, §3, §4

[3] = test system: Klebsiella pneumoniae NCTC 13439 (VIM); details: NCTC13439, meropenem alone, K. pneumoniae NCTC 13439
Protocol: as §1, §2, §3, §4

[4] = test system: Klebsiella pneumoniae ARLG-1196 (CTM-1 group, SHA NDM, TEM); details: meropenem alone, K. pneumoniae ARLG-1196
Protocol: as §1, §2, §3, §4

`C[C@@H](O)[C@H]1C(=O)N2C(C(=O)O)=C(S[C@@H]3CN[C@H](C(=O)N(C)C)C3)[C@H](C)[C@H]12` [Meropenem, meropenem, reference compound] gave an MIC [1] of 32 µg/mL, an MIC [2] of 16 µg/mL and an MIC [3] of 4 µg/mL. For the same compound, the MIC [4] was 64 µg/mL.
